One test concerns the target T1, human recombinant HDAC1 (Homo sapiens, UniProt Q13547).
T1 construct: purchased Enzo Life Science, Inc. BML-SE456
In words: HDAC1 enzyme activity inhibition (HDAC Fluorimetric Drug Discovery Kit). The format is biochemical. The note with it: read-out: HDAC1. Summed up:
(§1)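 Fluorimetric deacetylase read-out: after 30 min with Developer II following a 60 min, 30° C reaction of recombinant enzyme ([…]) with 10 μM substrate, across five-fold serial compound dilutions.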

For another test, the target named is T2, human recombinant HDAC6 (Homo sapiens, UniProt Q9UBN7).
T2 construct: purchased Calbiochem Inc. 382180
T2 sequence (Q9UBN7 1-1215): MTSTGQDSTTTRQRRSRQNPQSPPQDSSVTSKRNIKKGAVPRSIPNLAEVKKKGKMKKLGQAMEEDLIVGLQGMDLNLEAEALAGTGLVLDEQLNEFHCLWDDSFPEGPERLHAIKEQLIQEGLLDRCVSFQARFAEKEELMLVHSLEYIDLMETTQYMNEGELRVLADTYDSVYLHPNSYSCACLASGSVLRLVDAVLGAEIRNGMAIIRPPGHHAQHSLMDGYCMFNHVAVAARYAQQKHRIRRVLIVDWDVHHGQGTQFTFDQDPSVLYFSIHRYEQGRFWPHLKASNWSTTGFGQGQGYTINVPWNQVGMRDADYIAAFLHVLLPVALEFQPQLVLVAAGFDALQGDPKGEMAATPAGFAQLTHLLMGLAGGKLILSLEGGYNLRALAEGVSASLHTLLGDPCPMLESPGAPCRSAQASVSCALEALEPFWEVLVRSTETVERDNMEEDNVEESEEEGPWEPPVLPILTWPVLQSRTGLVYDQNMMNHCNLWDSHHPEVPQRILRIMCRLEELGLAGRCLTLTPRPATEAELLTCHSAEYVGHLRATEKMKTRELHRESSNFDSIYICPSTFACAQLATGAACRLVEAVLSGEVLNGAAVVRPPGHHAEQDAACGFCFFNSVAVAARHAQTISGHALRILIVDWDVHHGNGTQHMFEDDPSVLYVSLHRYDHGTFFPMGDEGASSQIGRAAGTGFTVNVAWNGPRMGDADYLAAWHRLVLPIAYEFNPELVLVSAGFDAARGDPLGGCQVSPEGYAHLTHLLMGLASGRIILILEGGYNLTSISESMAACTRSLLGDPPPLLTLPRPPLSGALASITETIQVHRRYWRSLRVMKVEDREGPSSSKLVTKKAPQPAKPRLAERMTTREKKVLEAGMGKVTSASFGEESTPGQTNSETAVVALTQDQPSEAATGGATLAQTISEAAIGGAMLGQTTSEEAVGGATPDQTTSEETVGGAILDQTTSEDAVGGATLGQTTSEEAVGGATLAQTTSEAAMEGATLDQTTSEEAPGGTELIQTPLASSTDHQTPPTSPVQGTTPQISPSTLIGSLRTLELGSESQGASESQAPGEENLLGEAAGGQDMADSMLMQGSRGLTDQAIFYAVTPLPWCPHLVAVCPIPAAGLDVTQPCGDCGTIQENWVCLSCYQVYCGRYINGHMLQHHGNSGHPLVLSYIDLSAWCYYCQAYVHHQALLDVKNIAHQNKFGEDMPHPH
In words: HDAC6 enzyme activity inhibition (HDAC Fluorimetric Drug Discovery Kit). In kind it is biochemical. A digest of the protocol: as §1

[1] abbreviates: human recombinant HDAC1, Fluor de Lys substrate, 30° C. 60 minutes.
The mark [2] stands for this setting: human recombinant HDAC6, same protocol as HDAC1.
[3] abbreviates: human recombinant HDAC1, IC50 calculated with GraphPad Prism.
Where [4] appears, read: human recombinant HDAC6, IC50 calculated with GraphPad Prism.

We go through 16 molecules from patent US20230257372A1 (CHONG KUN DANG PHARMACEUTICAL CORP., priority 2020, published 2023).

Where two headings read alike, the source gives them in different places.

T1 sequence (Q13547 whole entry): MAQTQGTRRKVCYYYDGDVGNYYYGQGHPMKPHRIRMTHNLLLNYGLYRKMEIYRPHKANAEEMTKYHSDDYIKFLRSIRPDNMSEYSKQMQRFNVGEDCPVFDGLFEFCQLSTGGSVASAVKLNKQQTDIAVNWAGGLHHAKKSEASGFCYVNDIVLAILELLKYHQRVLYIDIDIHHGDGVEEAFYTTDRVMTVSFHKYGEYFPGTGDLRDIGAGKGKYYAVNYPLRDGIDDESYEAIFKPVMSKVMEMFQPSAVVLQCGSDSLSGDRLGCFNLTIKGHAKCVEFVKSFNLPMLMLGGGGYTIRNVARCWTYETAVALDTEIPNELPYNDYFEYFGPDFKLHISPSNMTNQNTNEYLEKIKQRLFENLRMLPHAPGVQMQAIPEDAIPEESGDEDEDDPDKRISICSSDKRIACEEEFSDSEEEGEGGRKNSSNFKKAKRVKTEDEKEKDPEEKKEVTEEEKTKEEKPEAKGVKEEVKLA

As for `CC(C)(C)OC(=O)N1CCC(c2cccc(-c3cn(Cc4ncc(-c5nnc(C(F)F)o5)cc4F)nn3)c2)CC1` [Compound 18868, tert-butyl 4-(3-(1-((5-(5-(difluoromethyl)-1,3,4-oxadiazol-2-yl)-3-fluoropyridin-2-yl)methyl)-1H-1,2,3-triazol-4-yl)phenyl)piperidin-1-carboxylate], the IC50 on human recombinant HDAC1 (setting [1]) is over 50000 nM; at human recombinant HDAC6 (setting [2]) it was 551 nM. Further, the “HDAC6 selectivity (fold)” value at human recombinant HDAC6 (HDAC6 over HDAC1) amounted to 90 fold.
As for `CC(C)N1CCN(Cc2cccc(-c3cn(Cc4ccc(-c5nnc(C(F)F)o5)cc4)nn3)c2)CC1` [Compound 4416, 2-(difluoromethyl)-5-(4-((4-(3-((4-isopropylpiperazin-1-yl)methyl)phenyl)-1H-1,2,3-triazol-1-yl)methyl)phenyl)-1,3,4-oxadiazole], the IC50 on human recombinant HDAC1 (setting [3]) was over 50000 nM; on human recombinant HDAC6 (setting [4]) it was 112 nM. Moreover, on human recombinant HDAC6 (HDAC1 IC50 / HDAC6 IC50), the “HDAC6 selectivity (fold)” value amounted to 427 fold.
Regarding `O=C(Nc1cccc(-c2cn(Cc3ccc(-c4nnc(C(F)F)o4)cn3)nn2)c1)C1CN(C2COC2)C1` [Compound 4465], the results for the IC50 on human recombinant HDAC1 (setting [3]) and on human recombinant HDAC6 (setting [4]) were over 50000 nM and 22.5 nM, respectively. The “HDAC6 selectivity (fold)” value on human recombinant HDAC6 (HDAC1 IC50 / HDAC6 IC50) was determined as 2222 fold.
Regarding `CC(C)N1Cc2ccc(-c3cn(Cc4ccc(-c5nnc(C(F)F)o5)cn4)nn3)cc2C1` [Compound 4541, 2-(difluoromethyl)-5-(6-((4-(2-isopropylisoindolin-5-yl)-1H-1,2,3-triazol-1-yl)methyl)pyridin-3-yl)-1,3,4-oxadiazole], the results for the IC50 at human recombinant HDAC1 (setting [1]) and on human recombinant HDAC6 (setting [2]) were over 50000 nM and 34 nM, respectively. Besides, the “HDAC6 selectivity (fold)” value on human recombinant HDAC6 (HDAC6 over HDAC1) came out at 1470 fold.
With `FC(F)c1nnc(-c2ccc(Cn3cc(-c4ccc5c(c4)CN(C4COC4)C5)nn3)nc2)o1` [Compound 4543, 2-(difluoromethyl)-5-(6-((4-(2-(oxetan-3-yl)isoindolin-5-yl)-1H-1,2,3-triazol-1-yl)methyl)pyridin-3-yl)-1,3,4-oxadiazole], the IC50 on human recombinant HDAC1 (setting [1]) was over 50000 nM; on human recombinant HDAC6 (setting [2]), 37.7 nM. Moreover, the “HDAC6 selectivity (fold)” value on human recombinant HDAC6 (HDAC6 over HDAC1) is 1326 fold.
For `Fc1ccc(-c2cn(Cc3ccc(-c4nnc(C(F)F)o4)cc3)nn2)cc1N1CCNCC1` [Compound 4396, 2-(difluoromethyl)-5-(4-((4-(4-fluoro-3-(piperazin-1-yl)phenyl)-1H-1,2,3-triazol-1-yl)methyl)phenyl)-1,3,4-oxadiazole], the IC50 at human recombinant HDAC1 (setting [3]) was over 50000 nM; on human recombinant HDAC6 (setting [4]), 80.7 nM. The “HDAC6 selectivity (fold)” value at human recombinant HDAC6 (HDAC1 IC50 / HDAC6 IC50) is listed as 619 fold.
For the molecule `CN1CC(c2cccc(-c3cn(Cc4ccc(-c5nnc(C(F)F)o5)cc4)nn3)c2)C1` [Compound 4528, 2-(difluoromethyl)-5-(4-((4-(3-(1-methylazetidin-3-yl)phenyl)-1H-1,2,3-triazol-1-yl)methyl)phenyl)-1,3,4-oxadiazole], the IC50 at human recombinant HDAC1 (setting [1]) is over 50000 nM; at human recombinant HDAC6 (setting [2]), 135 nM. For the same molecule, the “HDAC6 selectivity (fold)” value on human recombinant HDAC6 (HDAC6 over HDAC1) worked out at 371 fold.
In the same order, the values of `CN(C)Cc1cccc(-c2cn(Cc3ncc(-c4nnc(C(F)F)o4)cc3F)nn2)c1Cl` [Compound 19088, 1-(2-chloro-3-(1-((5-(5-(difluoromethyl)-1,3,4-oxadiazol-2-yl)-3-fluoropyridin-2-yl)methyl)-1H-1,2,3-triazol-4-yl)phenyl)-N,N-dimethylmethanamine] are over 50000 nM, 78.2 nM and 639 fold.
As for `FC(F)c1nnc(-c2ccc(Cn3cc(-c4cccc(CN5CCC(F)(F)CC5)c4)nn3)nc2)o1` [Compound 4401, 2-(difluoromethyl)-5-(6-((4-(3-((4,4-difluoropiperidin-1-yl)methyl)phenyl)-1H-1,2,3-triazol-1-yl)methyl)pyridin-3-yl)-1,3,4-oxadiazole], the values for the IC50 on human recombinant HDAC1 (setting [3]) and on human recombinant HDAC6 (setting [4]) were over 50000 nM and 44.4 nM, respectively. For the same molecule, the “HDAC6 selectivity (fold)” value at human recombinant HDAC6 (HDAC1 IC50 / HDAC6 IC50) was found to be 1126 fold.
Regarding `FC(F)c1nnc(-c2ccc(Cn3cc(-c4cccc5c4CN(C4CCC4)C5)nn3)nc2)o1` [Compound 4598, 2-(6-((4-(2-cyclobutylisoindolin-4-yl)-1H-1,2,3-triazol-1-yl)methyl)pyridin-3-yl)-5-(difluoromethyl)-1,3,4-oxadiazole], the IC50 at human recombinant HDAC1 (setting [1]) is over 50000 nM; at human recombinant HDAC6 (setting [2]), 45.1 nM. Besides, the “HDAC6 selectivity (fold)” value on human recombinant HDAC6 (HDAC6 over HDAC1) is reported as 1108 fold.
Consider `FC(F)c1nnc(-c2ccc(Cn3cc(CCc4cn5ccccc5n4)nn3)nc2)o1` [Compound 3822, 2-(difluoromethyl)-5-(6-((4-(2-(imidazo[1,2-a]pyridin-2-yl)ethyl)-1H-1,2,3-triazol-1-yl)methyl)pyridin-3-yl)-1,3,4-oxadiazole], for which the IC50 was over 50000 nM on human recombinant HDAC1 (setting [3]) and 205 nM at human recombinant HDAC6 (setting [4]). Besides, the “HDAC6 selectivity (fold)” value on human recombinant HDAC6 (HDAC1 IC50 / HDAC6 IC50) is reported as 244 fold.
Taken in the same sequence, the figures for `CC(C)(C)OC(=O)N1CCC(c2cn(Cc3ccc(-c4nnc(C(F)F)o4)cc3F)nn2)CC1` [Compound 3735, Tert-butyl 4-(1-(4-(5-(difluoromethyl)-1,3,4-oxadiazol-2-yl)-2-fluorobenzyl)-1H-1,2,3-triazol-4-yl)piperidin-1-carboxylate] were over 50000 nM, 156 nM and 320 fold.
Take `CC(C)(C)OC(=O)N1CCC(c2cn(Cc3ccc(-c4nnc(C(F)F)o4)cn3)nn2)C1` (stereo not drawn) [Compound 3820, Tert-butyl 3-(1-((5-(5-(difluoromethyl)-1,3,4-oxadiazol-2-yl)pyridin-2-yl)methyl)-1H-1,2,3-triazol-4-yl)pyrrolidin-1-carboxylate]: the IC50 on human recombinant HDAC1 (setting [3]) was over 50000 nM; at human recombinant HDAC6 (setting [4]), 170 nM. Also, at human recombinant HDAC6 (HDAC1 IC50 / HDAC6 IC50), the “HDAC6 selectivity (fold)” value was 294 fold.
As for `FC(F)c1nnc(-c2ccc(Cn3cc(-c4ccc(CN5CC6(COC6)C5)cc4)nn3)nc2)o1` [Compound 4561, 6-(4-(1-((5-(5-(difluoromethyl)-1,3,4-oxadiazol-2-yl)pyridin-2-yl)methyl)-1H-1,2,3-triazol-4-yl)benzyl)-2-oxa-6-azaspiro[3.3]heptane], the values for the IC50 on human recombinant HDAC1 (setting [1]) and on human recombinant HDAC6 (setting [2]) were over 50000 nM and 14 nM, respectively. For the same molecule, the “HDAC6 selectivity (fold)” value at human recombinant HDAC6 (HDAC6 over HDAC1) is reported as 3571 fold.
Consider `O=C(O)c1cccc(-c2cn(Cc3ccc(-c4nnc(C(F)F)o4)cn3)nn2)c1` [Compound 3739], for which the IC50 at human recombinant HDAC1 (setting [3]) was over 50000 nM; on human recombinant HDAC6 (setting [4]), 63.9 nM. Moreover, the “HDAC6 selectivity (fold)” value at human recombinant HDAC6 (HDAC1 IC50 / HDAC6 IC50) worked out at 782 fold.
For `Fc1cc(-c2nnc(C(F)F)o2)cnc1Cn1cc(-c2cccc(C3CCN(C4CCC4)CC3)c2)nn1` [Compound 18870, 2-(6-((4-(3-(1-cyclobutylpiperidin-4-yl)phenyl)-1H-1,2,3-triazol-1-yl)methyl)-5-fluoropyridin-3-yl)-5-(difluoromethyl)-1,3,4-oxadiazole], the IC50 was over 50000 nM at human recombinant HDAC1 (setting [1]) and 44.5 nM at human recombinant HDAC6 (setting [2]). Besides, the “HDAC6 selectivity (fold)” value on human recombinant HDAC6 (HDAC6 over HDAC1) worked out at 1123 fold.
